{
  "source": "patent US20100216889A1",
  "about": "“PROLONGED EFFECT DISINFECTANT CLEANSER” (THE TRUSTEES OF COLUMBIA UNIVERSITY IN THE CITY OF, priority 2007, published 2010)",
  "system": "S. aureus",
  "assay": "Antiseptics and combinations in soap base C, mixed one minute with S. aureus",
  "type": "cell-based",
  "conditions": "antiseptics in soap base C; for Colony counts: 0.1 ml of 10^8 cfu/ml S. aureus mixed for one minute; for Log10 reduction from Control: S. aureus, one minute, control = soap base",
  "description": "To 0.9 ml of the base, 0.1 ml of 10^8 cfu/ml of S. aureus was added and mixed for one minute, after which 9.0 ml of drug inactivating media was added. The samples were mixed well and serial dilutions were made with drug inactivating media. Various dilutions were plated on TSA plates. As the control, […] of soap base was used.",
  "data": [
    {"molecule": "Oc1cc(Cl)ccc1Oc1ccc(Cl)cc1Cl", "note": "[0.5% TC, Triclosan]", "values": [
      {"measurement": "Colony counts", "value": "4.3 × 10^6"},
      {"measurement": "Log10 reduction from Control", "value": 0.89}
    ]},
    {"molecule": "N=C(NCCCCCCNC(=N)NC(=N)Nc1ccc(Cl)cc1)NC(=N)Nc1ccc(Cl)cc1.O=C(O)[C@H](O)[C@@H](O)[C@H](O)[C@H](O)CO.O=C(O)[C@H](O)[C@@H](O)[C@H](O)[C@H](O)CO", "note": "[0.2% CHG, Chlorhexidine gluconate]", "values": [
      {"measurement": "Colony counts", "value": "4.1 × 10^6"},
      {"measurement": "Log10 reduction from Control", "value": 0.92}
    ]},
    {"molecule": "CC(C)(C)CC(C)(C)c1ccc(OCCOCC[N+](C)(C)Cc2ccccc2)cc1.[Cl-]", "note": "[0.18% BZT, Benzathonium chloride]", "values": [
      {"measurement": "Colony counts", "value": "3.9 × 10^6"},
      {"measurement": "Log10 reduction from Control", "value": 0.94}
    ]},
    {"molecule": "Polyhexamethylene biguanide [0.3% PHMB]", "values": [
      {"measurement": "Colony counts", "value": "2.0 × 10^6"},
      {"measurement": "Log10 reduction from Control", "value": 1.17}
    ]}
  ]
}
